In PubChem BioAssay AID1963838 (Molecular Pharmacology Branch, DTP, NCI, 2024):

Tested on: 855422-203-R-J1-PDC complex spheroid viability
Assay: Anticancer human tumor 855422-203-R-J1-PDC patient-derived bladder carcinoma cell line growth inhibition [POLQ]
Conditions: for IC50: curve of first compound; for viability, T/C: stronger effect = lower value
Procedure, shortened: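 Patient-derived tumour cells were co-cultured with HUVEC and mesenchymal stem cells as multicellular spheroids at 37 °C. They were treated with POLQ inhibitors (novobiocin, ART-558, RP6685) alone or combined with other agents. Top concentrations were at or near clinical Cmax (otherwise 10 microM; SN-38 at 1 microM), decreasing in half-log steps.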

[1] = second compound 0.0316 µM, first compound 0.0316 µM
[2] = second compound 0.0316 µM, first compound 0.1 µM
[3] = second compound 0.0316 µM, first compound 0.316 µM
[4] = second compound 0.0316 µM, first compound 1 µM
[5] = second compound 0.0316 µM, first compound 3.16 µM
[6] = second compound 0.0316 µM, first compound 10 µM
[7] = second compound 0.1 µM, first compound 0.0316 µM
[8] = second compound 0.1 µM, first compound 0.1 µM
[9] = second compound 0.1 µM, first compound 0.316 µM
[10] = second compound 0.1 µM, first compound 1 µM
[11] = second compound 0.1 µM, first compound 3.16 µM
[12] = second compound 0.1 µM, first compound 10 µM
[13] = second compound 0.316 µM, first compound 0.0316 µM
[14] = second compound 0.316 µM, first compound 0.1 µM
[15] = second compound 0.316 µM, first compound 0.316 µM
[16] = second compound 0.316 µM, first compound 1 µM
[17] = second compound 0.316 µM, first compound 3.16 µM
[18] = second compound 0.316 µM, first compound 10 µM
[19] = second compound 1 µM, first compound 0.0316 µM
[20] = second compound 1 µM, first compound 0.1 µM
[21] = second compound 1 µM, first compound 0.316 µM
[22] = second compound 1 µM, first compound 1 µM
[23] = second compound 1 µM, first compound 3.16 µM
[24] = second compound 1 µM, first compound 10 µM
[25] = second compound 3.16 µM, first compound 0.0316 µM
[26] = second compound 3.16 µM, first compound 0.1 µM
[27] = second compound 3.16 µM, first compound 0.316 µM
[28] = second compound 3.16 µM, first compound 1 µM
[29] = second compound 3.16 µM, first compound 3.16 µM
[30] = second compound 3.16 µM, first compound 10 µM
[31] = second compound 10 µM, first compound 0.0316 µM
[32] = second compound 10 µM, first compound 0.1 µM
[33] = second compound 10 µM, first compound 0.316 µM
[34] = second compound 10 µM, first compound 1 µM
[35] = second compound 10 µM, first compound 3.16 µM
[36] = second compound 10 µM, first compound 10 µM
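Note: spheroids exposed to compounds for seven days before readout.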

For `CC(C)n1c(=O)n(C)c2cnc3cc(F)c(-c4ccc(OCCCN5CCCCC5)nc4)cc3c21` + Cc1cccc(N(C)C(=O)C2C(O)CCN2c2nc(C)cc(C(F)(F)F)c2C#N)c1, the IC50 (second compound 0.0316 µM) was over 10000 nM, the IC50 (second compound 0.1 µM) was over 10000 nM and the IC50 (second compound 0.316 µM) was over 10000 nM. It also gave an IC50 (second compound 1 µM) of over 10000 nM, an IC50 (second compound 3.16 µM) of over 10000 nM and an IC50 (second compound 10 µM) of 6790 nM. For the same compound, the viability, T/C [1] was 110%, the viability, T/C [2] was 113% and the viability, T/C [3] was 97.1%. The viability, T/C [4] was 84.5%, the viability, T/C [5] was 87.9% and the viability, T/C [6] was 57.6%. For the same compound, the viability, T/C [7] was 96.1%, the viability, T/C [8] was 104% and the viability, T/C [9] was 95.4%. It also gave a viability, T/C [10] of 85.8%, a viability, T/C [11] of 91.8% and a viability, T/C [12] of 56.3%. For the same compound, the viability, T/C [13] was 111%, the viability, T/C [14] was 104% and the viability, T/C [15] was 99.6%. It also gave a viability, T/C [16] of 87.4%, a viability, T/C [17] of 85.1% and a viability, T/C [18] of 60%. The viability, T/C [19] was 99.2%, the viability, T/C [20] was 92.6% and the viability, T/C [21] was 109%. For the same compound, the viability, T/C [22] was 94.1%, the viability, T/C [23] was 86.4% and the viability, T/C [24] was 56.2%. For the same compound, the viability, T/C [25] was 109%, the viability, T/C [26] was 101% and the viability, T/C [27] was 112%. For the same compound, the viability, T/C [28] was 97.5%, the viability, T/C [29] was 89.3% and the viability, T/C [30] was 56%. For the same compound, the viability, T/C [31] was 95.9%, the viability, T/C [32] was 97.8% and the viability, T/C [33] was 99.5%. For the same compound, the viability, T/C [34] was 94.2%, the viability, T/C [35] was 81.4% and the viability, T/C [36] was 33.9%.
`CC1COCCN1c1cc(C2(S(C)(=N)=O)CC2)nc(-c2ccnc3[nH]ccc23)n1` (centres undefined) + Cc1cccc(N(C)C(=O)C2C(O)CCN2c2nc(C)cc(C(F)(F)F)c2C#N)c1 was tested, and the IC50 (second compound 0.0316 µM) was 2560 nM, the IC50 (second compound 0.1 µM) was 2660 nM and the IC50 (second compound 0.316 µM) was 2500 nM. The IC50 (second compound 1 µM) was 2490 nM, the IC50 (second compound 3.16 µM) was 2370 nM and the IC50 (second compound 10 µM) was 2140 nM. The viability, T/C [1] was 112%, the viability, T/C [2] was 97.3% and the viability, T/C [3] was 107%. It also gave a viability, T/C [4] of 106%, a viability, T/C [5] of 37.4% and a viability, T/C [6] of 12.5%. The viability, T/C [7] was 94.7%, the viability, T/C [8] was 107% and the viability, T/C [9] was 115%. For the same compound, the viability, T/C [10] was 100%, the viability, T/C [11] was 41.1% and the viability, T/C [12] was 10.7%. For the same compound, the viability, T/C [13] was 96.3%, the viability, T/C [14] was 106% and the viability, T/C [15] was 101%. The viability, T/C [16] was 107%, the viability, T/C [17] was 36.6% and the viability, T/C [18] was 10.6%. The viability, T/C [19] was 110%, the viability, T/C [20] was 123% and the viability, T/C [21] was 115%. For the same compound, the viability, T/C [22] was 103%, the viability, T/C [23] was 36% and the viability, T/C [24] was 10.8%. The viability, T/C [25] was 105%, the viability, T/C [26] was 119% and the viability, T/C [27] was 94.5%. For the same compound, the viability, T/C [28] was 105%, the viability, T/C [29] was 31.4% and the viability, T/C [30] was 10.2%. It also gave a viability, T/C [31] of 103%, a viability, T/C [32] of 102% and a viability, T/C [33] of 105%. For the same compound, the viability, T/C [34] was 97.5%, the viability, T/C [35] was 25.7% and the viability, T/C [36] was 14.1%.
